From ChEMBL document CHEMBL5678811 (Invest New Drugs, 2014)
Active and inactive are the calls of the source. The rule behind the calls is not given here.

How the values were obtained:
MDA-MB-468 = assay: Cell cycle arrest in human MDA-MB-468 cells assessed as accumulation of cells at G2/M-phase at 0.16 uM measured after 24 hrs by propidium iodide staining based flow cytometry (reference value: 26.49%); assay type: functional
MV4-11 [1] = assay: Cell cycle arrest in human MV4-11 cells assessed as accumulation of cells at G2/M-phase at 2.5 uM measured after 24 hrs by propidium iodide staining based flow cytometry (reference value: 15.23%); assay type: functional
[2] = target: Cyclin-dependent kinase 5/CDK5 activator 1 (Homo sapiens) (UniProt Q00535+Q15078); settings: Sf21, dose 200.0 nM
Description: Inhibition of recombinant human full-length N-terminal His6-tagged cdk5/N-terminal GST-tagged p25 expressed in baculovirus infected Sf21 cells at 200 nM using histone H1 as substrate relative to control

COLO 205 [3] = settings: Mus musculus, CD1, dose 50.0 mg/kg, route po
MV4-11 [4] = assay: Cell cycle arrest in human MV4-11 cells assessed as accumulation of cells at G2/M-phase at 1.25 uM measured after 24 hrs by propidium iodide staining based flow cytometry (reference value: 15.23%); assay type: functional
MDA-MB-231 [5] = assay: Cell cycle arrest in human MDA-MB-231 cells assessed as accumulation of cells at G2/M-phase at 0.16 uM measured after 24 hrs by propidium iodide staining based flow cytometry (reference value: 11.46%); assay type: functional
COLO 205 [6] = settings: Homo sapiens, dose 50.0 mg/kg, route po, time > 56.0 day
COLO 205 [7] = settings: Mus musculus, CD1, dose 100.0 mg/kg, route po, time 21.0 day
Mus musculus [8] = organism: Mus musculus; settings: CD1, dose 50.0 mg/kg, route po, time 17.0 day
MV4-11 [9] = assay: Cell cycle arrest in human MV4-11 cells assessed as accumulation of cells at S-phase at […] measured after 24 hrs by propidium iodide staining based flow cytometry (reference value: 23.35%); assay type: functional; settings: dose 0.625 µM
MV4-11 [10] = assay: Cell cycle arrest in human MV4-11 cells assessed as accumulation of cells at S-phase at 2.5 uM measured after 24 hrs by propidium iodide staining based flow cytometry (reference value: 23.35%); assay type: functional
COLO 205 [11] = assay: In vivo inhibition of CDK4/CDK6 in human COLO 205 cells xenografted CD1 nu/nu mouse assessed as reduction in pHH3 expression at 12.5 to 50 mg/kg, po administered via gavage measured after 24 hrs by Western blot analysis; assay type: functional, organism-based; settings: dose 12.5-50 mg/kg
[12] = Toxicity in human COLO 205 cells xenografted CD1 nu/nu mouse assessed as change in cecum histology at 50 mg/kg, po administered daily via gavage for 56 days and measured on day 41 to 69 by histopathological analysis; assay type: organism-based; settings: in vivo, 1344 h, time 41-69 day
[13] = target: T1, Dual specificity tyrosine-phosphorylation-regulated kinase 2 (Homo sapiens) (UniProt Q92630); settings: Sf21, dose 200.0 nM
T1 sequence (whole entry): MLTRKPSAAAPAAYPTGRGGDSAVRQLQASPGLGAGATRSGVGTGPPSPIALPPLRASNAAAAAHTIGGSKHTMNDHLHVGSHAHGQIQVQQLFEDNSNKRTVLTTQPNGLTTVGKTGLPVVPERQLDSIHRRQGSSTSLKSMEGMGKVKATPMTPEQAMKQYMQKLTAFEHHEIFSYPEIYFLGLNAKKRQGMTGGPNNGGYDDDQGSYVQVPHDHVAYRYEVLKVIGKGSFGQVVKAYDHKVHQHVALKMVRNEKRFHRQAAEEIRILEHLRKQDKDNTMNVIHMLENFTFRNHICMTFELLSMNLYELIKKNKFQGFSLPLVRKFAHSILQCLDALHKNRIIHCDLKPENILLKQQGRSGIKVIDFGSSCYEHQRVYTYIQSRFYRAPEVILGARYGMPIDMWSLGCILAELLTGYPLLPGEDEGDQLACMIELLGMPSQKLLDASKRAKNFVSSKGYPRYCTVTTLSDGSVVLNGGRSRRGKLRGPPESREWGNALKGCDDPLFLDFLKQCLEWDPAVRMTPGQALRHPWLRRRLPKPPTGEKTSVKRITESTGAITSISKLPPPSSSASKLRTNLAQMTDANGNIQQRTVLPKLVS
Description: Inhibition of recombinant human full-length 6His-tagged DYRK2 expressed in baculovirus infected Sf21 insect cells at 200 nM using casein as substrate relative to control

MV4-11 [14] = assay: Cell cycle arrest in human MV4-11 cells assessed as accumulation of cells at S-phase at 1.25 uM measured after 24 hrs by propidium iodide staining based flow cytometry (reference value: 23.35%); assay type: functional
COLO 205 [15] = settings: Mus musculus, CD1, dose 50.0 mg/kg, route po, time lower 1.0 hrs, time upper […], TDE = time-dependent effect
COLO 205 [16] = assay: Antitumor activity against human COLO 205 cells xenografted in CD1 nu/nu mouse assessed as tumor growth inhibition at 25 to 100 mg/kg, po administered once daily via gavage for 21 days measured twice per week during compound dosing; assay type: functional, organism-based; settings: dose 25-100 mg/kg, time 21.0 day
MV4-11 [17] = assay: Cell cycle arrest in human MV4-11 cells assessed as accumulation of cells at G2/M-phase at 0.16 uM measured after 24 hrs by propidium iodide staining based flow cytometry (reference value: 15.23%); assay type: functional
MV4-11 [18] = assay: Cell cycle arrest in human MV4-11 cells assessed as accumulation of cells at G1-phase at 1.25 uM measured after 24 hrs by propidium iodide staining based flow cytometry (reference value: 61.42%); assay type: functional
MV4-11 [19] = assay: Cell cycle arrest in human MV4-11 cells assessed as accumulation of cells at G1-phase at 0.32 uM measured after 24 hrs by propidium iodide staining based flow cytometry (reference value: 61.42%); assay type: functional
Mus musculus [20] = organism: Mus musculus; settings: CD1, dose 50.0 mg/kg, route po, time 17.0 day; remark: listed apart in the source
COLO 205 [21] = settings: Mus musculus, CD1, dose 50.0 mg/kg, route po; remark: listed apart in the source
MDA-MB-231 [22] = assay: Cell cycle arrest in human MDA-MB-231 cells assessed as accumulation of cells at S-phase at 0.16 uM measured after 24 hrs by propidium iodide staining based flow cytometry (reference value: 38.27%); assay type: functional
MV4-11 [23] = assay: Cell cycle arrest in human MV4-11 cells assessed as accumulation of cells at S-phase at 0.08 uM measured after 24 hrs by propidium iodide staining based flow cytometry (reference value: 23.35%); assay type: functional
COLO 205 [24] = settings: Mus musculus, CD1, dose 100.0 mg/kg, route po, time 21.0 day; remark: listed apart in the source
MDA-MB-231 [25] = assay: Cell cycle arrest in human MDA-MB-231 cells assessed as accumulation of cells at G1-phase at 2.5 uM measured after 24 hrs by propidium iodide staining based flow cytometry (reference value: 50.27%); assay type: functional
COLO 205 [26] = settings: Mus musculus, CD1, dose 50.0 mg/kg, route po; remark: listed apart in the source
[27] = Toxicity in human COLO 205 cells xenografted CD1 nu/nu mouse assessed as decrease in red cell mass at 50 mg/kg, po administered daily via gavage for 56 days and measured on day 41 to 69 by hematological analysis; assay type: organism-based; settings: in vivo, 1344 h, time 41-69 day

Cyclin-dependent kinase 5/CDK5 activator 1 (Homo sapiens), sequence (Q00535 whole entry): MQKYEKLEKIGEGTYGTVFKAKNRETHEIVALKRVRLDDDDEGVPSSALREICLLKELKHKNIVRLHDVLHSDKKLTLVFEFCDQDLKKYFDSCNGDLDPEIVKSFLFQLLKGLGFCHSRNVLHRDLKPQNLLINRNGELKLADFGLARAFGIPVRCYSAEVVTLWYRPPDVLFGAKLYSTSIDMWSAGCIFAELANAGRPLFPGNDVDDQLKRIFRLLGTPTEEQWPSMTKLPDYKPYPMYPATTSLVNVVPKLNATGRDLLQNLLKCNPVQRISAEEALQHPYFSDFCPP
Cyclin-dependent kinase 5/CDK5 activator 1 (Homo sapiens), sequence (Q15078 99-307 partner limits assumed): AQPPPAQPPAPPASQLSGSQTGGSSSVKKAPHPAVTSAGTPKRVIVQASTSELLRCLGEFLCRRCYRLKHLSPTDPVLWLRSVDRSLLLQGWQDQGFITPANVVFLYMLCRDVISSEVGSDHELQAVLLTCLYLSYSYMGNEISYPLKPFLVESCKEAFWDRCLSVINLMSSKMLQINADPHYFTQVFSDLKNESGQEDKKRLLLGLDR

Question: Which Activity (MDA-MB-468) does the source give for `CCN1CCN(Cc2ccc(Nc3ncc(F)c(-c4cc(F)c5nc(C)n(C(C)C)c5c4)n3)nc2)CC1` [ABEMACICLIB] here?
Answer: The Activity was 24.55%.

Question: And the Activity (MV4-11 [1])?
Answer: Its Activity is 2.96%.

Question: And the inhibition [2]?
Answer: The inhibition was > 90%.

Question: And the inhibition (COLO 205 [3])?
Answer: Its inhibition is “Active”.

Question: And the Activity (MV4-11 [4])?
Answer: Its Activity is 1.84%.

Question: What about the Activity (MDA-MB-231 [5]) of the same compound?
Answer: The Activity was 4.02%.

Question: What about the TGI (COLO 205 [6]) of the same compound?
Answer: The TGI was “Active”.

Question: What about the inhibition (COLO 205 [7]) of the same compound?
Answer: The inhibition was “Active”.

Question: And the inhibition (Mus musculus [8])?
Answer: Its inhibition is “inactive”.

Question: And the Activity (MV4-11 [9])?
Answer: Its Activity is 3.6%.

Question: What about the Activity (MV4-11 [10]) of the same compound?
Answer: Its Activity is 2.99%.

Question: And the inhibition (COLO 205 [11])?
Answer: The inhibition was “Active”.

Question: What about the Activity [12] of the same compound?
Answer: Its Activity is “Non-Toxic”.

Question: What about the inhibition [13] of the same compound?
Answer: Its inhibition is > 90%.

Question: And the Activity (MV4-11 [14])?
Answer: The Activity was 4.18%.

Question: What about the inhibition (COLO 205 [15]) of the same compound?
Answer: Its inhibition is “Tde”.

Question: And the TGI (COLO 205 [16])?
Answer: Its TGI is “Active”.

Question: What about the Activity (MV4-11 [17]) of the same compound?
Answer: The Activity was 2.73%.

Question: What about the Activity (MV4-11 [18]) of the same compound?
Answer: Its Activity is 93.98%.

Question: What about the Activity (MV4-11 [19]) of the same compound?
Answer: Its Activity is 95.5%.

Question: And the inhibition (Mus musculus [20])?
Answer: The inhibition was “Active”.

Question: What about the inhibition (COLO 205 [21]) of the same compound?
Answer: The inhibition was “inactive”.

Question: What about the Activity (MDA-MB-231 [22]) of the same compound?
Answer: Its Activity is 17.12%.

Question: And the Activity (MV4-11 [23])?
Answer: Its Activity is 8.59%.

Question: And the inhibition (COLO 205 [24])?
Answer: Its inhibition is “Active”.

Question: What about the Activity (MDA-MB-231 [25]) of the same compound?
Answer: The Activity was 86.04%.

Question: And the inhibition (COLO 205 [26])?
Answer: Its inhibition is “Active”.

Question: What about the Activity [27] of the same compound?
Answer: Its Activity is “Non-Toxic”.
